Test results reported in publication PMC10097024, “Cytotoxic and Antibacterial Prenylated Acylphloroglucinols from Hypericum olympicum L” (Plants, 2023).
pIC50: −log10 of the molar value.

What was measured:
MDA-MB-231 = assay: Antiproliferative test (NCI methodology); format: cell-based, human; settings: for GI50: MDA-MB-231, MTT readout; for TGI: MDA-MB-231, total growth inhibition
From the text: The group of human cell lines used in this study were represented by the tumor cell lines MDA-MB (breast carcinoma), EJ (urinary bladder carcinoma), K-562 (chronic myeloid leukemia), HL-60 (acute pre-myeloid leukemia), HL-60/DOX (multi-drug resistant HL-60 cell line, with over expression of MRP-1) and the non-tumorigenic cell lines HEK-293 (embryonic kidney cells) and EA.hy926 (vascular endothelial cells). EJ, HL60 and EA.hy926 were purchased from American Type Culture Collection (ATCC) (Manassas, Virginia). The other cell lines were purchased from the German Collection of Microorganisms and Cell Cultures (DSMZ GmbH, Braunschweig, Germany). HL-60/DOX cell lines were generated by periodically treating HL-60 cells with anthracyclins. The conditions in which the cell culture flasks were maintained were as follows: 37 °C in an incubator “BB 16-Function Line” Heraeus (Kendro, Hanau, Germany) with 5% CO2 humidified atmosphere. The growth medium was 90% RPMI-1640, supplemented with 10% FBS and 2 mM L-glutamine. MDA-MB-231, EJ, HEK-293 and EA.hy926 cells were maintained as adherent monolayer cultures while all the other (leukemic) cell lines were grown as suspension type cultures. Cells were maintained in log phase: the adherent cell lines were subjected to trypsinization 1–2 times a week and the leukemic cell lines were passaged 2–3 times a week by removing of part of the cellular suspension and substituting it with fresh medium.
The test was performed according the methodology of National Cancer Institute (NCI), USA [116]. Briefly, cells were seeded into 96-well plates in the same way as for an MTT test and after 24 h, the absorption of one plate of each cell line was measured as in the MTT assay described above, to represent a measurement of the cell population at the time of drug-addition (Tz). The rest of the plates were treated with the tested compounds and the experiment for them continued as the MTT-method. Using the absorbance measurements [(Tz, untreated control growth (C) and test growth in the present of the compounds (Ti)], the percentage growth is calculated at each of the tested concentrations of the compounds. Percentage growth inhibition (GI) is calculated as GI%=Ti−Tz/C−Tz×100 for concentrations for which Ti ≥ Tz. For concentrations in which Ti < Tz it is calculated as GI%=Ti−Tz/Tz×100 . Two dose parameters are calculated for each experimental agent. Growth inhibition of 50% (GI50) is calculated from Ti−Tz/C−Tz×100=50 . This is the drug concentration resulting in a 50% reduction in the net protein increase (as measured by MTT-test) in control cells during the drug incubation. The drug concentration resulting in total growth inhibition (TGI) is calculated from Ti = Tz.

K-562 cells = settings: human leukemia cell line K-562, dissolved in DMSO; cited from earlier work
SKW-3 = test system: SKW-3; set-up: method as in PMID 26411018; settings: human leukemia cell line SKW-3, dissolved in DMSO; cited from earlier work
BV-173 = test system: BV-173; set-up: method as in PMID 26411018; settings: human leukemia cell line BV-173, dissolved in DMSO; cited from earlier work
procaspase 9 = assay: Western blot, procaspase 9; format: cell-based, human; settings: MDA-MB-231 and HL60/DOX
Protocol: Next, the samples were lysed on ice with a buffer containing 100 mM Tris–HCl at pH 8.0, 4% SDS, 20% glycerol, 1% Na3VO4, 200 mM dithiothreitol (DTT) (Sigma-Aldrich, St. Louis, MO, USA) and protease inhibitor (Roche, Basel, Switzerland). Then the cell lysate was boiled for 15 min and centrifuged at 13,000 rpm for 10 min at 4 °C. Before DTT addition, aliquot samples of 10 μL were taken from the lysates. Their protein concentrations were determined using a BCA protein assay kit (ThermoFisher Scientific, Waltham, MA, USA) after dilution 5× with H2O. Subsequently, the samples were subjected to denaturing SDS-PAGE electrophoresis and then transferred to PVDF membrane (Santa Cruz Biotechnology, USA). After this, the blots were fixed with blocking solution (5% w/v nonfat dried milk powder, dissolved in TBS) and incubated with specific primary antibodies: mouse procaspase-9 (sc-17784), mouse Bcl-2 (C-2, sc-7382) and mouse β-actin (sc-8432). The incubation was either overnight at 4 °C or for 150 min at room temperature. After washing, the membranes were incubated for 45 min with horseradish peroxidase conjugated secondary goat anti-mouse antibody (sc-2005) or mouse IgG kappa antibody (sc-516102) (Santa Cruz Biotechnology, Santa Cruz, CA, USA). […] This densitometry analysis of the blots was calculated by Quantity One software version 4.6.9 (Bio-Rad Laboratories, Hercules, CA, USA). […]

Compound: CC(C)=CCC[C@]1(C)[C@@H](CC=C(C)C)C[C@]2(C)C(=O)C(CC=C(C)C)=C(O)[C@@]1(C(=O)C(C)C)C2=O [Compound 3, hyperpolyphyllirin/hyperibine J]
- GI50 (MDA-MB-231; Homo sapiens): 1.93 µM
- TGI (MDA-MB-231): 2.96 µM
- pIC50 (K-562 cells): 4.67
- pIC50 (SKW-3): 5.28
- pIC50 (BV-173): 5.24

Compound: CC(C)=CCC[C@]1(C)[C@@H](CC=C(C)C)C[C@H]2C(=O)[C@]1(C(=O)C(C)C)C(=O)C(CC=C(C)C)=C2O [Compound 5, (1S,5R,7S,8R)-4-hydroxy-1-isobutyryl-8-methyl-3,7-bis(3-methylbut-2-en-1-yl)-8-(4-methylpent-3-en-1-yl)bicyclo[3.3.1]non-3-ene-2,9-dione]
- degradation of the precursor caspase 9 (in words) (procaspase 9): not any observed decrease

Compound: (1R,5R,7S,8R)-4-hydroxy-5,8-dimethyl-3,7-bis(3-methylbut-2-en-1-yl)-1-(2-methylbutanoyl)-8-(4-methylpent-3-en-1-yl)bicyclo[3.3.1]non-3-ene-2,9-dione [Compound 4]
- GI50 (MDA-MB-231): 0.52 µM
- TGI (MDA-MB-231): 0.81 µM
